Here are results for one compound from BindingDB's records for patent US10081629 (Jiangsu Hengrui Medicine, 2018).

For the test, the target named is T1, Prostaglandin E synthase (Homo sapiens, UniProt O14684).
T1 sequence (O14684 whole entry): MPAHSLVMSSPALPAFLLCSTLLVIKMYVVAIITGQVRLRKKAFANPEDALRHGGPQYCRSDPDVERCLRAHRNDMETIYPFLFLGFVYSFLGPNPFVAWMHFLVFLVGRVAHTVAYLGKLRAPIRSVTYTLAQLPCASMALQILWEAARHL
The test can be described thus: mPGES1 enzyme assay. On the procedure:
mPGES1 was diluted with assay buffer and added into plate at 49 μL/well supplemented with 1 μL of compound (the final concentration of each compound at seven gradient concentrations was 10000 nM, 1000 nM, 100 nM, 10 nM, 1 nM, 0.1 nM and 0.01 nM). […] Then, each well was added with 53.8 μL of 6 mg/mL SnCl2 to quench the reaction. The sample was diluted with dilute buffer at 1:400. 10 μl of diluted sample, 5 μL PGE2-d2 and 5 μL anti-PGE2 Cryptate were added to a black 384-well plate, and incubated at 4° C. overnight. HTRF was determined using Flexstation, and the IC50 of the compounds was obtained by data processing software.

As to `COCCn1c(C2=CC=C(C(F)(F)F)CC2)cc2cc(NC(=O)c3cc(CNC(=O)C(C)(C)F)cnc3C(F)F)ccc21` [US10081629, Example 27], the IC50 turned out to be 13.4 nM.

For orientation: IC50 means the concentration that gives 50% inhibition. Higher therefore signals weaker potency in that assay.
